biological target: T1, BRD4 (Homo sapiens, UniProt O60885); assay: Assay 1 - Degradation of HiBit-BRD4 in HEK293; format: cell-based; settings: HiBit-BRD4 in HEK293, 6 h treatment
T1 construct: HEK293 containing a HiBit insertion for BRD4; endogenous in cells; host or cells: HEK293 with a HiBiT insertion for BRD4
Description: 1.1 Assay 1-Degradation of HiBit-BRD4 in HEK293
HEK293 containing a HiBit insertion for BRD4 were plated in 384-well tissue culture plates at a density of 8×10^4 per well in a volume of 36 μL and incubated overnight at 37° C. and 5% CO2. Wells were treated with test compounds for 6 h prior to addition of the NanoLuc substrate and reading on a […]. Degradation data was plotted and analysed using […] (Graphpad).

Which DC50 does the source give for `CC(=O)N1c2ccc(-c3ccc(C(=O)NCCOCCOCCOCCOCCOCCNC(=O)C4CC(c5ccccc5)CN(C(=O)/C(C#N)=C/C(C)(C)C)C4)cc3)cc2[C@H](Nc2ccc(Cl)cc2)C[C@@H]1C` (stereo partly drawn) [Example 13aa] here?
Its DC50 is over 200 nM.

What about the Dmax of the same compound?
The Dmax was at least 70%.

How did the DC50 turn out when `CC(=O)N1c2ccc(-c3ccc(C(=O)NCCOCCOCCOCCOCCOCCNC(=O)C4CC(c5ccccc5)CN(C(=O)/C(C#N)=C/c5ccn(C)n5)C4)cc3)cc2[C@H](Nc2ccc(Cl)cc2)C[C@@H]1C` (stereo partly drawn) [Example 13ab] was run?
The DC50 was over 200 nM.

What about the Dmax of the same compound?
The Dmax was 50 to 70%.

With `CC(=O)N1c2ccc(-c3ccc(C(=O)NCCOCCOCCOCCOCCOCCNC(=O)C4CC(c5ccccc5)CN(C(=O)/C(C#N)=C/c5ccc(F)cc5)C4)cc3)cc2[C@H](Nc2ccc(Cl)cc2)C[C@@H]1C` (stereo partly drawn) [Example 13ac] as the compound, how does the DC50 read?
The DC50 was 25 to 200 nM.

What about the Dmax of the same compound?
The Dmax was at least 70%.

For `COc1ccc(C2CC(C(=O)NCCOCCOCCOCCOCCOCCNC(=O)c3ccc(-c4ccc5c(c4)[C@H](Nc4ccc(Cl)cc4)C[C@H](C)N5C(C)=O)cc3)CN(C(=O)/C(C#N)=C/c3nccs3)C2)cc1` (stereo partly drawn) [Example 13ae], which DC50 is on record?
Its DC50 is 25 to 200 nM.

And the Dmax?
The Dmax was at least 70%.

Which DC50 does the source give for `COc1ccc(C2CC(C(=O)NCCOCCOCCOCCOCCOCCNC(=O)c3ccc(-c4ccc5c(c4)[C@H](Nc4ccc(Cl)cc4)C[C@H](C)N5C(C)=O)cc3)CN(C(=O)/C(C#N)=C/C(C)(C)C)C2)cc1` (stereo partly drawn) [Example 13af] here?
The DC50 was 25 to 200 nM.

What about the Dmax of the same compound?
The Dmax was 50 to 70%.

For `COc1ccc(C2CC(C(=O)NCCOCCOCCOCCOCCOCCNC(=O)c3ccc(-c4ccc5c(c4)[C@H](Nc4ccc(Cl)cc4)C[C@H](C)N5C(C)=O)cc3)CN(C(=O)/C(C#N)=C/c3ccn(C)n3)C2)cc1` (stereo partly drawn) [Example 13ag], which DC50 is on record?
The DC50 was 25 to 200 nM.

What about the Dmax of the same compound?
The Dmax was 50 to 70%.

Which results are given for `COc1ccc(C2CC(C(=O)NCCOCCOCCOCCOCCOCCNC(=O)c3ccc(-c4ccc5c(c4)[C@H](Nc4ccc(Cl)cc4)C[C@H](C)N5C(C)=O)cc3)CN(C(=O)/C(C#N)=C/c3ccc(F)cc3)C2)cc1` (stereo partly drawn) [Example 13ah]?
DC50: 25 to 200 nM; Dmax: ≥ 70%

With `COc1ccc(C2CC(C(=O)NCCOCCOCCOCCOCCOCCNC(=O)c3ccc(-c4ccc5c(c4)[C@H](Nc4ccc(Cl)cc4)C[C@H](C)N5C(C)=O)cc3)CN(C(=O)/C(C#N)=C/C(C)(C)CN3CCOCC3)C2)cc1` (stereo partly drawn) [Example 13ai] as the compound, how does the DC50 read?
Its DC50 is over 200 nM.

What about the Dmax of the same compound?
The Dmax was 30 to 50%.

`CC(=O)N1c2ccc(-c3ccc(C(=O)NCCOCCOCCOCCOCCOCCNC(=O)C4CC(c5ccc(C(F)(F)F)cc5)CN(C(=O)/C(C#N)=C/C(C)(C)C)C4)cc3)cc2[C@H](Nc2ccc(Cl)cc2)C[C@@H]1C` (stereo partly drawn) [Example 13ak] was tested. Which DC50 did it give?
The DC50 was 25 to 200 nM.

What about the Dmax of the same compound?
Its Dmax is at least 70%.

With `CC(=O)N1c2ccc(-c3ccc(C(=O)NCCOCCOCCOCCOCCOCCNC(=O)C4CC(c5ccc(C(F)(F)F)cc5)CN(C(=O)/C(C#N)=C/C(C)(C)CN5CCOCC5)C4)cc3)cc2[C@H](Nc2ccc(Cl)cc2)C[C@@H]1C` (stereo partly drawn) [Example 13an] as the compound, how does the DC50 read?
The DC50 was 25 to 200 nM.

What about the Dmax of the same compound?
The Dmax was 30 to 50%.

Which results are given for `CC(=O)N1c2ccc(-c3ccc(C(=O)NCCOCCOCCOCCOCCOCCNC(=O)C4CC(c5cccc(C)c5)CN(C(=O)/C(C#N)=C/c5nccs5)C4)cc3)cc2[C@H](Nc2ccc(Cl)cc2)C[C@@H]1C` (stereo partly drawn) [Example 13at]?
DC50: 25 to 200 nM; Dmax: ≥ 70%

For `CC(=O)N1c2ccc(-c3ccc(C(=O)NCCOCCOCCOCCOCCOCCNC(=O)C4CC(c5cccc(C)c5)CN(C(=O)/C(C#N)=C/C(C)(C)C)C4)cc3)cc2[C@H](Nc2ccc(Cl)cc2)C[C@@H]1C` (stereo partly drawn) [Example 13au], which DC50 is on record?
The DC50 was 25 to 200 nM.

And the Dmax?
The Dmax was at least 70%.

What does the source list for `CC(=O)N1c2ccc(-c3ccc(C(=O)NCCOCCOCCOCCOCCOCCNC(=O)C4CC(c5cccc(C)c5)CN(C(=O)/C(C#N)=C/c5ccn(C)n5)C4)cc3)cc2[C@H](Nc2ccc(Cl)cc2)C[C@@H]1C` (stereo partly drawn) [Example 13av]?
DC50: > 200 nM; Dmax: 50 to 70%

With `CC(=O)N1c2ccc(-c3ccc(C(=O)NCCOCCOCCOCCOCCOCCNC(=O)C4CC(c5cccc(C)c5)CN(C(=O)/C(C#N)=C/c5ccc(F)cc5)C4)cc3)cc2[C@H](Nc2ccc(Cl)cc2)C[C@@H]1C` (stereo partly drawn) [Example 13aw] as the compound, how does the DC50 read?
Its DC50 is over 200 nM.

What about the Dmax of the same compound?
The Dmax was under 50%.

What does the source list for `CC(=O)N1c2ccc(-c3ccc(C(=O)NCCOCCOCCOCCOCCOCCNC(=O)C4CC(c5cccc(C)c5)CN(C(=O)/C(C#N)=C/C(C)(C)CN5CCOCC5)C4)cc3)cc2[C@H](Nc2ccc(Cl)cc2)C[C@@H]1C` (stereo partly drawn) [Example 13ax]?
DC50: < 25 nM; Dmax: ≥ 70%

Which results are given for `CC(=O)N1c2ccc(-c3ccc(C(=O)NCCOCCOCCOCCOCCOCCNC(=O)C4CCCN(C(=O)/C(C#N)=C/C(C)(C)C)C4)cc3)cc2[C@H](Nc2ccc(Cl)cc2)C[C@@H]1C` (stereo partly drawn) [Example 13b]?
DC50: 25 to 200 nM; Dmax: ≥ 70%

How did the DC50 turn out when `CC(=O)N1c2ccc(-c3ccc(C(=O)NCCOCCOCCOCCOCCOCCNC(=O)C4CCCN(C(=O)/C(C#N)=C/c5ccn(C)n5)C4)cc3)cc2[C@H](Nc2ccc(Cl)cc2)C[C@@H]1C` (stereo partly drawn) [Example 13c] was run?
The DC50 was 25 to 200 nM.

And the Dmax?
The Dmax was under 50%.

With `CC(=O)N1c2ccc(-c3ccc(C(=O)NCCOCCOCCOCCOCCOCCNC(=O)C4CCCN(C(=O)/C(C#N)=C/c5ccc(F)cc5)C4)cc3)cc2[C@H](Nc2ccc(Cl)cc2)C[C@@H]1C` (stereo partly drawn) [Example 13d] as the compound, how does the DC50 read?
The DC50 was over 200 nM.

What about the Dmax of the same compound?
The Dmax was 30 to 50%.

With `CC(=O)N1c2ccc(-c3ccc(C(=O)NCCOCCOCCOCCOCCOCCNC(=O)C4CCCN(C(=O)/C(C#N)=C/C(C)(C)CN5CCOCC5)C4)cc3)cc2[C@H](Nc2ccc(Cl)cc2)C[C@@H]1C` (stereo partly drawn) [Example 13e] as the compound, how does the DC50 read?
The DC50 was over 200 nM.

What about the Dmax of the same compound?
The Dmax was 30 to 50%.

For `CC(=O)N1c2ccc(-c3ccc(C(=O)NCCOCCOCCOCCOCCOCCNC(=O)C4CC(C)CN(C(=O)/C(C#N)=C/C(C)(C)C)C4)cc3)cc2[C@H](Nc2ccc(Cl)cc2)C[C@@H]1C` (stereo partly drawn) [Example 13g], which DC50 is on record?
The DC50 was over 200 nM.

What about the Dmax of the same compound?
The Dmax was 50 to 70%.

How did the DC50 turn out when `CC(=O)N1c2ccc(-c3ccc(C(=O)NCCOCCOCCOCCOCCOCCNC(=O)C4CC(C)CN(C(=O)/C(C#N)=C/c5ccc(F)cc5)C4)cc3)cc2[C@H](Nc2ccc(Cl)cc2)C[C@@H]1C` (stereo partly drawn) [Example 13i] was run?
Its DC50 is over 200 nM.

What about the Dmax of the same compound?
The Dmax was 30 to 50%.

`CC(=O)N1c2ccc(-c3ccc(C(=O)NCCOCCOCCOCCOCCOCCNC(=O)C4CC(C(C)C)CN(C(=O)/C(C#N)=C/c5nccs5)C4)cc3)cc2[C@H](Nc2ccc(Cl)cc2)C[C@@H]1C` (stereo partly drawn) [Example 13k] was tested. Which DC50 did it give?
Its DC50 is under 25 nM.

And the Dmax?
The Dmax was at least 70%.

What does the source list for `CC(=O)N1c2ccc(-c3ccc(C(=O)NCCOCCOCCOCCOCCOCCNC(=O)C4CC(C(C)C)CN(C(=O)/C(C#N)=C/C(C)(C)C)C4)cc3)cc2[C@H](Nc2ccc(Cl)cc2)C[C@@H]1C` (stereo partly drawn) [Example 13l]?
DC50: > 200 nM; Dmax: 30 to 50%

Which DC50 does the source give for `CC(=O)N1c2ccc(-c3ccc(C(=O)NCCOCCOCCOCCOCCOCCNC(=O)C4CC(C(C)C)CN(C(=O)/C(C#N)=C/c5ccn(C)n5)C4)cc3)cc2[C@H](Nc2ccc(Cl)cc2)C[C@@H]1C` (stereo partly drawn) [Example 13m] here?
The DC50 was 25 to 200 nM.

And the Dmax?
Its Dmax is 50 to 70%.

Which DC50 does the source give for `CC(=O)N1c2ccc(-c3ccc(C(=O)NCCOCCOCCOCCOCCOCCNC(=O)C4CC(C(C)C)CN(C(=O)/C(C#N)=C/c5ccc(F)cc5)C4)cc3)cc2[C@H](Nc2ccc(Cl)cc2)C[C@@H]1C` (stereo partly drawn) [Example 13n] here?
Its DC50 is over 200 nM.

And the Dmax?
Its Dmax is 50 to 70%.

How did the DC50 turn out when `CC(=O)N1c2ccc(-c3ccc(C(=O)NCCOCCOCCOCCOCCOCCNC(=O)C4CC(C5CCCCC5)CN(C(=O)/C(C#N)=C/c5nccs5)C4)cc3)cc2[C@H](Nc2ccc(Cl)cc2)C[C@@H]1C` (stereo partly drawn) [Example 13p] was run?
Its DC50 is under 25 nM.

And the Dmax?
The Dmax was at least 70%.

`CC(=O)N1c2ccc(-c3ccc(C(=O)NCCOCCOCCOCCOCCOCCNC(=O)C4CC(C5CCCCC5)CN(C(=O)/C(C#N)=C/C(C)(C)C)C4)cc3)cc2[C@H](Nc2ccc(Cl)cc2)C[C@@H]1C` (stereo partly drawn) [Example 13q] was tested. Which DC50 did it give?
Its DC50 is 25 to 200 nM.

What about the Dmax of the same compound?
Its Dmax is 50 to 70%.
